PubChem BioAssay (NCI)
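Compound exposure: 48 hours, 5 concentrations, 96-well plates. TGI: concentration producing complete growth inhibition.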 Where a SMILES comes first, the peptide text is derived from it. The star is where a group is joined. Boc = CC(C)(C)OC(=O)*

Columns and labels:
Test in all cases: DTP human tumour cell line panel, 48 h
SK-MEL-2 melanoma = system: SK-MEL-2 melanoma
IGROV1 ovarian = system: IGROV1 ovarian
SK-MEL-28 melanoma = system: SK-MEL-28 melanoma
OVCAR-5 ovarian = system: OVCAR-5 ovarian
COLO 205 colon = system: COLO 205 colon

Compound	TGI (SK-MEL-2 melanoma)	TGI (IGROV1 ovarian)	TGI (SK-MEL-28 melanoma)	TGI (OVCAR-5 ovarian)	TGI (COLO 205 colon)
CC(C)/C(Cl)=N\OC(=O)Nc1cccc(F)c1	18.9 µM	36.2 µM	31.9 µM	35.1 µM	5.87 µM
COC(=O)/C=C/c1ccc2c(c1)CCC2	> 100 µM	> 100 µM	> 100 µM	> 100 µM	–
O=C1/C(=C/C=C/c2ccccc2)N=C(c2ccccc2)N1C1Nc2cc3c(cc2S1)NC(N1C(=O)/C(=C/C=C/c2ccccc2)N=C1c1ccccc1)S3 (configuration not stated)	> 100 µM	> 100 µM	> 100 µM	> 100 µM	–
CC(C)CNC(=O)CCc1cccc2c1oc1c(CCN)cccc12	36.7 µM	23.7 µM	23.8 µM	28.7 µM	19.7 µM
CC1(c2ccc(F)cc2)CC(c2ccc(F)cc2)=C(C#N)C(=C(C#N)C#N)N1 (configuration not stated)	34.4 µM	32.3 µM	47.3 µM	38.5 µM	27.9 µM
CCOC(=O)c1c(N)nn2c1cc1cccccc12	45.1 µM	94.8 µM	83.3 µM	> 100 µM	78.4 µM
C=C1C(=O)O[C@@H]2[C@H]1C[C@@H](O)[C@H](C)[C@@](O)(C(=O)/C=C/C)[C@H]2OC(=O)C(C)CC (some centres not stated)	84.1 µM	12.8 µM	24.2 µM	14.5 µM	3.33 µM
CCOC(=O)c1cc2c(ccc3cc(C(=O)OCC)[nH]c32)[nH]1	> 100 µM	> 100 µM	25.7 µM	> 100 µM	> 100 µM
O=C1CCCCC/C1=C\c1ccc(F)cc1	> 100 µM	> 100 µM	> 100 µM	> 100 µM	> 100 µM
C/C=C/c1c(O)c(=O)c2c(OC)cc(OC)c3c4c(OC)cc(OC)c5c(=O)c(O)c(/C=C/C)c(c1c23)c54	24.9 µM	19.2 µM	36.6 µM	68.9 µM	19.1 µM
CC(=O)OC1CCN(C(=O)c2ccccc2)CC1CC1(c2cc3ccccc3[nH]2)OCCO1 (configuration not stated)	> 100 µM	> 100 µM	> 100 µM	> 100 µM	> 100 µM
CCOC(=O)Cc1nnc2c(-c3ccccc3)nc3ccccc3n12	95.2 µM	> 100 µM	> 100 µM	> 100 µM	> 100 µM
CC(=N/NC(=S)N1CCCCC1)/C(=N\NC(=S)N1CCCCC1)c1ccccc1	4.62 µM	3.27 µM	3.94 µM	3.87 µM	4.06 µM
COc1cc(C2c3cc4c(cc3OC(NC3CCCCC3)C2C)OCO4)cc(OC)c1OC (configuration not stated)	47.8 µM	> 54 µM	> 100 µM	> 100 µM	0.825 µM
COC(OC)C1OC(CO)C(n2cc(C)c(=O)[nH]c2=O)C1O (configuration not stated)	> 100 µM	> 100 µM	> 100 µM	> 100 µM	> 100 µM
N#Cc1c(-c2ccc(Cl)cc2)cc(-c2ccc(Nc3ccnc4cc(C(F)(F)F)ccc34)cc2)[nH]c1=O	> 100 µM	> 100 µM	> 34.6 µM	> 65 µM	59.4 µM
CCN(CC)CC(=O)Nc1c(C(N)=O)nnn1Cc1cc(Cl)c(C(=O)c2ccc(Cl)cc2)c(Cl)c1	28.4 µM	74.4 µM	33.3 µM	40.7 µM	33.2 µM
COc1ccc(NC(=O)CC(=O)N2N=C(N3CCCCC3)CC2c2ccccc2)cc1 (configuration not stated)	> 100 µM	> 100 µM	> 100 µM	> 100 µM	> 100 µM
CC(=O)O[C@H]1C(=O)[C@@]2(C)[C@H]([C@H](OC(=O)c3ccccc3)[C@]3(O)C[C@H](OC(=O)[C@H](OC(=O)OCCC(O)CO)[C@@H](NC(=O)c4ccccc4)c4ccccc4)C(C)=C1C3(C)C)[C@]1(OC(C)=O)CO[C@@H]1C[C@@H]2O (some centres not stated)	> 100 µM	34.7 µM	–	43.5 µM	–
Cc1nc(C)c(C(=O)NNC(=O)Cc2ccccc2)cc1C(=O)NNC(=O)Cc1ccccc1	> 100 µM	> 100 µM	–	> 100 µM	> 100 µM
COC(=O)[C@@H]1CN(C(=O)c2ccccc2)C(=O)N1	–	> 100 µM	> 100 µM	> 100 µM	–
O=C1/C(=C\c2ccc(Cl)cc2Cl)Sc2scc(-c3cccc([N+](=O)[O-])c3)[n+]21	30.3 µM	22.5 µM	59.2 µM	34.4 µM	2.56 µM

Compound	TGI (SK-MEL-2 melanoma)	TGI (IGROV1 ovarian)	TGI (SK-MEL-28 melanoma)	TGI (OVCAR-5 ovarian)	TGI (COLO 205 colon)
O=c1cc(-c2ccccc2)[nH]c2cc(F)c(F)cc12	> 75.1 µM	> 54.1 µM	> 100 µM	> 100 µM	34.7 µM
COc1cc(O)cc(/C=C/c2ccc(O)cc2)c1	> 100 µM	> 100 µM	> 100 µM	> 100 µM	> 100 µM
Cc1ccccc1C1CC(=O)CC(c2ccccc2C)C12C(=O)NC(=O)NC2=O (configuration not stated)	> 100 µM	> 100 µM	> 100 µM	> 100 µM	> 100 µM
CN(NC(=O)c1ccco1)C1=NCCN1	> 100 µM	> 100 µM	> 100 µM	> 100 µM	> 100 µM
COc1ccc(N(C)S(=O)(=O)c2ccccc2)cc1	> 100 µM	> 100 µM	> 100 µM	> 100 µM	> 100 µM
Cc1ccc(/C(O)=C/c2nc3ccccc3oc2=O)cc1	> 100 µM	> 100 µM	–	> 100 µM	> 100 µM
CC(NC(=O)C(NC(=O)OC(C)(C)C)C(C)C)C(=O)N1CCCC1C(=O)NCC(=O)NC(C(=O)NCC(=O)O)C(C)C (configuration not stated) (Boc-VAPGVG-OH; configuration not given here)	> 100 µM	> 100 µM	> 100 µM	> 100 µM	> 100 µM
N#Cc1c2ccc([N+](=O)[O-])cc2c(=O)n2c1sc1ccc(C(F)(F)F)cc12	–	> 100 µM	> 100 µM	> 100 µM	> 100 µM
O=c1[nH]nc(Cc2ccccc2)n1/N=C/c1c(O)ccc2ccccc12	> 100 µM	93.4 µM	–	–	> 100 µM
CSC1=C(C(=O)Nc2ccc(Cl)cc2)C(N)=NC1=O	> 100 µM	> 100 µM	> 100 µM	> 100 µM	> 100 µM
COc1cc(OC)cc(Oc2nc3ccccc3nc2C(=O)O)c1	> 100 µM	> 100 µM	> 100 µM	> 100 µM	> 100 µM
O=C1/C(=C/c2cccnc2)C(n2cccc2)c2c(Br)sc(Br)c21 (configuration not stated)	4.63 µM	3.38 µM	7.31 µM	31.9 µM	21.6 µM
Cn1c2ccccc2c2c(-c3ccccc3)[n+]3ccccc3nc21	40.4 µM	80.9 µM	46.7 µM	> 100 µM	> 100 µM
CC1=NN(C(=O)CC(=O)Nc2ccccc2C)C(=O)C1N=Nc1ccc(C(=O)O)cc1 (configuration not stated)	> 100 µM	> 100 µM	> 100 µM	> 100 µM	> 100 µM
COc1cc2cc(C(=O)N3CC(CCl)c4c3cc([N+](=O)[O-])c3ccccc43)[nH]c2c(OC)c1OC (configuration not stated)	> 100 µM	> 100 µM	> 100 µM	> 100 µM	> 100 µM
Cc1ccc2c(c1)C(=O)/C(=C\c1ccccc1)CCS2(=O)=O	89.8 µM	28.7 µM	> 66.4 µM	> 55.7 µM	42 µM
CC(C)(C)OC(=O)N(O)[C@@H]1C=C[C@H](n2cnc3c(N)ncnc32)C1	> 100 µM	> 100 µM	> 100 µM	> 100 µM	> 100 µM
Cc1cc(C)nc(NS(=O)(=O)c2ccc(Nc3nncc(=O)n3N)cc2)n1	> 100 µM	33.1 µM	74.6 µM	37.2 µM	> 100 µM
C#CCOC(=O)c1ccccc1O	> 100 µM	> 100 µM	–	> 100 µM	> 100 µM
COc1ccc(CN2C[C@H]3[C@@H](CC(=O)O[C@H]3C)CC2=O)cc1	> 100 µM	> 100 µM	> 100 µM	> 100 µM	> 100 µM
C=CCCCC1CCCNC1=O (configuration not stated)	> 100 µM	> 100 µM	> 100 µM	> 100 µM	–
CC1Cc2c(Br)nc(N)nc2NC1=O (configuration not stated)	> 100 µM	> 100 µM	> 100 µM	> 100 µM	> 100 µM

Compound	TGI (SK-MEL-2 melanoma)	TGI (IGROV1 ovarian)	TGI (SK-MEL-28 melanoma)	TGI (OVCAR-5 ovarian)	TGI (COLO 205 colon)
CSc1c(C(=O)Nc2ccc(Cl)cc2)c(N)nn1-c1ccccc1	> 100 µM	> 100 µM	> 100 µM	> 100 µM	> 100 µM
CC(=O)Oc1ccc2c(c1)Oc1cc(C(C)=O)ccc1C21OC(=O)c2ccccc21 (configuration not stated)	> 100 µM	> 100 µM	> 100 µM	> 100 µM	> 100 µM
O=C(/C=C(\O)c1ccc(Cl)cc1)C(=O)N=Nc1c(O)[nH]c2ccc(Br)cc12	41.2 µM	> 100 µM	> 100 µM	> 100 µM	> 100 µM
CCCCON1C[C@@H](O)C(O)[C@@H](O)C1 (some centres not stated)	> 100 µM	> 100 µM	> 100 µM	> 100 µM	> 100 µM
C=CC(Cl)(CBr)CCC(Br)=C(C)C (configuration not stated)	36.8 µM	29.9 µM	40.7 µM	61.2 µM	33.4 µM
O=C1C=CC2(O[C@H](c3ccccc3)[C@@H](c3ccccc3)O2)C(SC(=O)c2ccccc2)C1 (some centres not stated)	3.51 µM	2.86 µM	3.55 µM	3.27 µM	2.69 µM
N#Cc1ccc(Oc2nc3ccccc3nc2-c2ccccc2)cc1	> 100 µM	> 100 µM	> 100 µM	> 100 µM	> 100 µM
COc1ccccc1C1SCC(=O)N1c1ccc(-n2c(-c3ccccc3)nc3ccccc3c2=O)cc1 (configuration not stated)	> 100 µM	> 100 µM	> 100 µM	> 100 µM	> 100 µM
COc1c(C)c(C/C=C(\C)CCCCO[Si](C(C)C)(C(C)C)C(C)C)c(OC)c2ccccc12	> 100 µM	> 100 µM	–	> 100 µM	> 100 µM
Cc1ccc(S(=O)(=O)N2CCN(S(=O)(=O)c3ccc(C)cc3)Cc3ccccc3C2)cc1	> 100 µM	> 100 µM	> 100 µM	–	> 100 µM
CC1=NN(c2cccc(Cl)c2)C2(SCC(=O)N2c2nc3ccccc3s2)/C1=C\c1ccc(Cl)cc1 (configuration not stated)	35.7 µM	37.8 µM	72.4 µM	55.4 µM	–
COc1cc(/C=C2\C[C@H]3[C@@H]4CC=C5C[C@@H](O)CC[C@]5(C)[C@H]4CC[C@]3(C)[C@H]2O)cc(OC)c1OC	32.5 µM	> 100 µM	> 100 µM	61.9 µM	42.2 µM
O=C(Nc1cc(C(=O)Nc2cccc(S(=O)(=O)O)c2)cc(C(=O)Nc2cccc(S(=O)(=O)O)c2)c1)c1cccc(C(=O)Nc2cc(C(=O)Nc3cccc(S(=O)(=O)O)c3)cc(C(=O)Nc3cccc(S(=O)(=O)O)c3)c2)c1	> 100 µM	> 100 µM	> 100 µM	> 100 µM	> 100 µM
COc1cc(N=CN(C)C)c2ncccc2c1	> 100 µM	> 100 µM	> 100 µM	> 100 µM	> 100 µM
C/C=C(C)/C=C/CC(C)CCC=C(C)C (configuration not stated)	> 100 µM	> 100 µM	> 100 µM	> 100 µM	> 100 µM
CCOC(=O)c1ccc(Nc2nc3cc(C(F)(F)F)ccc3nc2-c2ccccc2)cc1	–	> 100 µM	> 100 µM	> 100 µM	> 100 µM
O=C(O)CNC(=O)CO/N=C1/C(c2c(O)[nH]c3ccccc23)=Nc2ccccc21	> 100 µM	> 100 µM	> 100 µM	> 100 µM	> 100 µM
CC1=NN(c2nc(N)nc(CCl)n2)CC1	> 100 µM	25.9 µM	56.4 µM	57.4 µM	36.3 µM
COc1ccc2cc(C(C)C(O)c3cc(F)c(F)c(F)c3F)ccc2c1 (configuration not stated)	–	> 100 µM	> 100 µM	> 100 µM	> 100 µM
OC(c1nc2ccccc2s1)(C(F)(F)F)C(F)(F)F	> 100 µM	> 100 µM	> 100 µM	> 100 µM	> 100 µM
COC1=C2CC(C)CC(OC)[C@@H](OC(=O)CCN)[C@H](C)/C=C(\C)C(OC(N)=O)C(OC)/C=C\C=C(/C)C(=O)NC(=CC1=O)C2=O (some centres not stated)	22.7 µM	3.25 µM	5.22 µM	21.1 µM	0.964 µM
CCOP(C)(=O)C(Cc1c[nH]c2ccccc12)C(=O)O (configuration not stated)	> 100 µM	> 100 µM	> 100 µM	> 100 µM	> 100 µM
